Laboratory results: the supplement of paper PMC7840683
Structures can show the parent of a compound that is named as a salt. ± gives the standard deviation of the averaged measurements.

Tested on: HepaRG
Assay: LDH release cytotoxicity, % of total lysis control; higher = more cytotoxic
Conditions: 48 h
Method in brief: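 Percent cytotoxicity was scaled between on-plate vehicle and total lysis controls, then averaged over duplicate wells. The cells were single-lot HepaRG on collagen I-coated 96-well plates, exposed for 48 h to eight-point half-log test chemical series topping at 100 µM in serum-free induction medium with 0.5% DMSO. Total lysis wells got 0.1% Triton X, and LDH in 50 µL spent medium was read as resorufin fluorescence (CytoTox-ONE, Tecan Safire).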

SMILES	LDH release cytotoxicity (0.03162 µM) [%]	LDH release cytotoxicity (0.1 µM) [%]	LDH release cytotoxicity (0.3162278 µM) [%]	LDH release cytotoxicity (1 µM) [%]	LDH release cytotoxicity (3.16228 µM) [%]	LDH release cytotoxicity (10 µM) [%]	LDH release cytotoxicity (31.6228 µM) [%]	LDH release cytotoxicity (100 µM) [%]	LDH release cytotoxicity (0.0328877 µM) [%]	LDH release cytotoxicity (0.104 µM) [%]	LDH release cytotoxicity (0.328877 µM) [%]	LDH release cytotoxicity (1.04 µM) [%]	LDH release cytotoxicity (3.28877 µM) [%]	LDH release cytotoxicity (10.4 µM) [%]	LDH release cytotoxicity (32.8877 µM) [%]	LDH release cytotoxicity (104 µM) [%]
CCCCCCCCCCCCCCCCCC(=O)O [Octadecanoic acid]	-0.507 ± 0.67	-1.75 ± 1.4	-1.54 ± 0.31	-1.46 ± 0.77	-1.45 ± 0.023	-0.538 ± 0.059	-0.0805 ± 0.49	0.581 ± 0.81								
C[Si]1(C)O[Si](C)(C)O[Si](C)(C)O[Si](C)(C)O1 [Octamethylcyclotetrasiloxane]	-1.66 ± 0.14	-2.19 ± 2.6	-0.981 ± 0.89	-1.15 ± 0.56	-1.27 ± 0.5	-0.835 ± 0.65	-1.36 ± 1.4	1.7 ± 1.9								
CCCCCCCC=O [Octanal]	-2.27 ± 0.13	-2.49 ± 0.035	-2.18 ± 1.1	-1.59 ± 0.17	-1.99 ± 0.053	-1.65 ± 0.19	-0.367 ± 0.076	-0.293 ± 0.53								
CCCCCCCC(=O)O [Octanoic acid]	-1.17 ± 0.13	-1.02 ± 0.23	-0.609 ± 0.43	-0.537 ± 0.81	-0.391 ± 0.73	-0.933 ± 1.1	-0.626 ± 0.1	0.799 ± 0.12								
CCCCCCCCn1sccc1=O [Octhilinone]									-1.41 ± 0.74	-1.11 ± 0.18	-1.8 ± 0.29	-2.06 ± 0.24	-1.28 ± 0.083	-1.43 ± 0.041	-0.0918 ± 0.75	41.4 ± 8.2
CC(C)(C)CC(C)(C)c1ccc(O)c(-n2nc3ccccc3n2)c1 [Octrizole]	-2.72 ± 1.6	-2.89 ± 0.71	-2.68 ± 0.86	-3.09 ± 0.49	-3.1 ± 0.38	-2.49 ± 0.85	-1.9 ± 1.4	-2.37 ± 0.56								
CCCCCCCCOC(=O)c1cc(O)c(O)c(O)c1 [Octyl gallate]	-1.14 ± 0.66	-0.159 ± 0.23	-0.124 ± 0.33	-0.776 ± 1.1	0.219 ± 0.33	-0.238 ± 0.52	-1.86 ± 0.4	2.05 ± 1.3								
CCCCC(CC)CN1C(=O)C2C3C=CC(C3)C2C1=O (centres undefined) [Octylbicycloheptenedicarboximide]	0.282 ± 1.1	-0.366 ± 0.72	-0.0268 ± 1.1	-1.18 ± 0.3	-0.584 ± 0.76	-0.999 ± 0.41	-1.23 ± 0.39	8.34 ± 1								
CCCN(CCC)c1c([N+](=O)[O-])cc(S(N)(=O)=O)cc1[N+](=O)[O-] [Oryzalin]	-2.37 ± 0.48	-2.04 ± 0.77	-0.725 ± 1.5	-1.89 ± 1.1	-2.11 ± 0.66	-2.88 ± 0.44	-1.72 ± 0.24	77.1 ± 9.5								
CC(C)Oc1cc(-n2nc(C(C)(C)C)oc2=O)c(Cl)cc1Cl [Oxadiazon]	-0.101 ± 1	-0.564 ± 0.81	-0.449 ± 1.2	0.329 ± 0.022	0.576 ± 0.019	0.044 ± 0.0027	0.449 ± 0.49	13.02 ± 0.12								
CNC(=O)ON=C(SC)C(=O)N(C)C [Oxamyl]	-0.761 ± 0.13	-0.802 ± 0.67	-1.45 ± 0.73	-1.85 ± 0.63	-1.65 ± 0.22	-1.06 ± 0.34	-1.05 ± 0.48	-1.42 ± 0.44								
CCOc1cc(Oc2ccc(C(F)(F)F)cc2Cl)ccc1[N+](=O)[O-] [Oxyfluorfen]	-0.516 ± 0.33	0.229 ± 1.1	-0.848 ± 0.08	-0.859 ± 0.59	-0.159 ± 0.1	-0.932 ± 0.39	-2.53 ± 0.26	-1.47 ± 0.42								
CN(C)C1C(=O)C(C(N)=O)C(=O)C2(O)C(=O)C3C(=O)c4c(O)cccc4C(C)(O)C3C(O)C12 (centres undefined) [Oxytetracycline dihydrate]	-2.54 ± 0.23	-1.62 ± 0.88	-1.71 ± 0.26	-1.95 ± 0.25	-1.59 ± 0.099	-2.1 ± 0.93	-3.27 ± 0.36	-4 ± 0.13								
CN(C)C1C(=O)C(C(N)=O)C(=O)C2(O)C(=O)C3C(=O)c4c(O)cccc4C(C)(O)C3C(O)C12 (centres undefined) [Oxytetracycline hydrochloride]	-0.636 ± 0.43	-0.707 ± 0.15	-1.81 ± 0.59	-1.93 ± 0.75	-1.93 ± 0.7	-1.21 ± 0.36	-1.75 ± 1.1	-1.47 ± 0.43								
CC(C)(C)C(O)C(Cc1ccc(Cl)cc1)n1cncn1 (centres undefined) [Paclobutrazol]	-0.9138 ± 0.0047	-1.5 ± 0.066	-1.02 ± 0.15	-1.49 ± 1.2	-1.96 ± 1	-1.1 ± 0.17	-1.36 ± 0.77	-0.278 ± 0.059								
CCOP(=S)(OCC)Oc1ccc([N+](=O)[O-])cc1 [Parathion]	-1.76 ± 1.2	-2.78 ± 0.71	-2.35 ± 0.15	-2.92 ± 0.81	-3.21 ± 0.57	-2.39 ± 0.84	-1.78 ± 1.4	6.21 ± 0.097								
CCC(CC)Nc1c([N+](=O)[O-])cc(C)c(C)c1[N+](=O)[O-] [Pendimethalin]	-2.12 ± 0.66	-1.6 ± 0.38	-0.436 ± 0.39	0.269 ± 1.7	1.12 ± 0.21	0.875 ± 1.2	-2.25 ± 0.069	1.08 ± 1.2								
COc1cnc(OC)n2nc(NS(=O)(=O)c3c(OCC(F)F)cccc3C(F)(F)F)nc12 [Penoxsulam]	-0.317 ± 0.26	-1.82 ± 0.45	-1.21 ± 0.65	-1.71 ± 0.57	-0.488 ± 0.1	-0.309 ± 0.71	-1.02 ± 0.03	0.729 ± 0.1								
